Assay results from patent publication US20110098278A1 (priority 2009, published 2011).
“And” between values parts separate entries of the source, which are not always exact repeats. Equal values may be shown once. Where a name gives a salt, the structure may show the parent alone. Read-outs that look alike come from different tables or passages of the source.

Legend:
[1] = target: T1, human acetylcholine esterase (Homo sapiens, UniProt P22303); assay: Human acetylcholine esterase inhibition (human recombinant, HEK-293 cells; Ellman photometry); format: biochemical; settings: for inhibitory action toward human acetylcholine esterase (in words): in contrast to galantamine
T1 construct: host or cells: HEK-293 cells

[2] = tested on: Sprague Dawley rat; assay: PICA behavior (kaolin consumption) in the Sprague Dawley rat as surrogate for emesis; format: in vivo
Description: This is a well established model for this purpose in the rat (Takeda N et al (1993) 45 817-21).
Once determined, a comparison was made of the effects of these doses on kaolin consumption over a 0-96 hour period in 24 h increments.
In detail groups of 10 male Sprague Dawley rats were habituated to kaolin for 3 days, then singly housed in grid-bottomed cages and habituated for a further 2 days prior to dosing. On the day of drug administration, the animals were food-deprived for 1 h prior to dosing. […] Access to a weighed quantity of food and kaolin was then restored. Food and kaolin was weighed 24, 48, 72 and 96 h after dosing.

[3] = tested on: rabbit stomach circular smooth muscle; assay: Ex vivo rabbit stomach circular smooth muscle, electrical field stimulation; format: cell-based; settings: rabbit stomach strips under EFS; 100 nM to 100 μM
[4] = tested on: ferret; assay: Emetic activity (retching and vomiting) in the ferret
[5] = tested on: human stomach circular smooth muscle; assay: Ex vivo human stomach circular smooth muscle, electrical field stimulation; format: cell-based; settings: human stomach strips under EFS; 100 nM to 100 μM
[6] = USP SGF pH 1.2, 37 deg. C., 0 hours
[7] = USP SGF pH 1.2, 37 deg. C., 1 hour
[8] = USP SIF pH 6.8, 37 deg. C., 0 hours
[9] = USP SIF pH 6.8, 37 deg. C., 2 hours
[10] = human recombinant (HEK-293 cells), AMTCh 50 μM, 30 min./37° C., read-out: IC50 for inhibition of human acetyl choline esterase
[11] = 40 mg/kg as base p.o., 2 hr. observation, individual ferrets
[12] = 20 mg/kg p.o., 2 hr. observation, individual ferrets, listed as Galantamine valine ester tartrate
[13] = 20 mg (free base)/kg oral or similar molar dose

T1 sequence (P22303 32-614): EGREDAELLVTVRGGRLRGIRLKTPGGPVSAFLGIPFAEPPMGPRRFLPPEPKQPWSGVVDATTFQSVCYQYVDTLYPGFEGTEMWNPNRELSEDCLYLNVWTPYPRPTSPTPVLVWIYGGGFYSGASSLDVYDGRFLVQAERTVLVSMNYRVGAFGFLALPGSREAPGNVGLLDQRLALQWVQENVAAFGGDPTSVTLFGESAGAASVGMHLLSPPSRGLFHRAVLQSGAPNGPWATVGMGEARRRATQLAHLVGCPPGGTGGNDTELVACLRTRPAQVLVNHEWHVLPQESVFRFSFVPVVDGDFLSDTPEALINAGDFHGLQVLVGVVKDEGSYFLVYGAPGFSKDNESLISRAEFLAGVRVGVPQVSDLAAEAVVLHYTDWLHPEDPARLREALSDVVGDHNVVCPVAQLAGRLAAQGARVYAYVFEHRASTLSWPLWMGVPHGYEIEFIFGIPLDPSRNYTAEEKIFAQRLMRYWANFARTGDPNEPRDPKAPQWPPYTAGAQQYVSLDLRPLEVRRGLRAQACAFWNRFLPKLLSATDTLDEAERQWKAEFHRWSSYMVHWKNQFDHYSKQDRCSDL

In the case of `COc1ccc2c3c1O[C@H]1C[C@@H](OC(=O)CCCC(=O)Nc4ccc(C(=O)O)cc4)C=C[C@@]31CCN(C)C2` [Galantamine [glutaryl-PABA] ester, galantamine (glutaryl-PABA) ester trifluoroacetate], the IC50 [1] is reported as greater than 100 µM and the “inhibitory action toward human acetylcholine esterase (in words)” value [1] is reported as “significantly less inhibitory actions”.

With `COc1ccc2c3c1O[C@H]1C[C@@H](OC(=O)Nc4cccc(C(=O)O)c4)C=C[C@@]31CCN(C)C2` [Galantamine meta amino benzoic acid carbamate] the “% Prodrug Remaining” value [6] was 100%, the “% Prodrug Remaining” value [7] was 100% and the “% Prodrug Remaining” value [8] was 100%. For the same molecule, the “% Prodrug Remaining” value [9] was 100% and the IC50 [1, 10] was 26 µM.

With `COc1ccc2c3c1O[C@H]1C[C@@H](OC(=O)Nc4ccc(C(=O)O)cc4)C=C[C@@]31CCN(C)C2` [Galantamine para amino benzoic acid carbamate] the “% Prodrug Remaining” value [6] was 100-%, the “% Prodrug Remaining” value [7] was 100% and the “% Prodrug Remaining” value [8] was 100%. The “% Prodrug Remaining” value [9] was 100% and the IC50 [1, 10] was 32 µM.

In the case of `COc1ccc2c3c1O[C@H]1C[C@@H](OC(=O)NCc4ccc(C(=O)O)cc4)C=C[C@@]31CCN(C)C2` [Galantamine para-amino methyl benzoic acid carbamate], the “% Prodrug Remaining” value [6] is reported as 100%, the “% Prodrug Remaining” value [7] is reported as 100% and the “% Prodrug Remaining” value [8] is reported as 100%. For the same molecule, the “% Prodrug Remaining” value [9] was 100% and the IC50 [1, 10] was 46 µM.

For `COc1ccc2c3c1O[C@H]1C[C@@H](OC(=O)Nc4ccc(C(=O)O)cn4)C=C[C@@]31CCN(C)C2` [Galantamine para-amino nicotinic acid carbamate], the “% Prodrug Remaining” value [6] was 100%, the “% Prodrug Remaining” value [7] was 100% and the “% Prodrug Remaining” value [8] was 100%. The “% Prodrug Remaining” value [9] was 100% and the IC50 [1, 10] was 55 µM.

For `COc1ccc2c3c1O[C@H]1C[C@@H](OC(=O)N[C@@H](Cc4ccccc4)C(=O)O)C=C[C@@]31CCN(C)C2` [Galantamine phenylalanine carbamate, galantamine-(S)-phenylalanine carbamate trifluoroacetate], the “% Prodrug Remaining” value [6] was 94.7%, the “% Prodrug Remaining” value [7] was 94.7% and the “% Prodrug Remaining” value [8] was 95.9%. For the same molecule, the “% Prodrug Remaining” value [9] was 95.6%.

With `COc1ccc2c3c1O[C@H]1C[C@@H](OC(=O)CCC(=O)N[C@H](C(=O)O)C(C)C)C=C[C@@]31CCN(C)C2.O=C(O)C(F)(F)F` [Galantamine succinyl valine ester, galantamine-[succinyl-(S)-valine]ester trifluoroacetate] the “Cumulative mean ± SD kaolin consumption” value ([2]; 11.75 mg galantamine free base content/kg po, 24 h) was 0.14 ± 0.20 g, the “Cumulative mean ± SD kaolin consumption” value ([2]; 11.75 mg galantamine free base content/kg po, 48 h) was 0.29 ± 0.24 g and the “Cumulative mean ± SD kaolin consumption” value ([2]; 11.75 mg galantamine free base content/kg po, 72 h) was 0.48 ± 0.27 g. The “Cumulative mean ± SD kaolin consumption” value ([2]; 11.75 mg galantamine free base content/kg po, 96 h) was 0.57 ± 0.40 g, the “Cumulative mean ± SD kaolin consumption” value ([2]; 23.5 mg galantamine free base content/kg po, 24 h) was 0.31 ± 0.53 g and the “Cumulative mean ± SD kaolin consumption” value ([2]; 23.5 mg galantamine free base content/kg po, 48 h) was 0.61 ± 0.69 g. The “Cumulative mean ± SD kaolin consumption” value ([2]; 23.5 mg galantamine free base content/kg po, 72 h) was 0.95 ± 0.96 g, the “Cumulative mean ± SD kaolin consumption” value ([2]; 23.5 mg galantamine free base content/kg po, 96 h) was 1.25 ± 1.31 g and the “Cumulative mean ± SD kaolin consumption” value ([2]; 47 mg galantamine free base content/kg po, 24 h) was 0.15 ± 0.18 g. For the same molecule, the “Cumulative mean ± SD kaolin consumption” value ([2]; 47 mg galantamine free base content/kg po, 48 h) was 0.40 ± 0.18 g, the “Cumulative mean ± SD kaolin consumption” value ([2]; 47 mg galantamine free base content/kg po, 72 h) was 0.63 ± 0.28 g and the “Cumulative mean ± SD kaolin consumption” value ([2]; 47 mg galantamine free base content/kg po, 96 h) was 0.91 ± 0.45 g. The “Cumulative mean ± SD kaolin consumption” value ([2]; 47 mg galantamine free base content/kg po, 96 h, listed as GSVE) was 0.91 ± 0.45 g, the “kaolin consumption compared with vehicle alone (in words)” value ([2]; oral, up to 47 mg (galantamine free base content)/kg) was “little evidence for any increase in kaolin consumption” and the “stimulation of smooth muscle contractions (change in force production)” value [3] was “complete absence of any such effect”. The IC50 [1] was greater than 100 µM, the “inhibitory action toward human acetylcholine esterase (in words)” value [1] was “significantly less inhibitory actions” and the “Time (min) to onset of: Retching” value [4, 11] was greater than 120 min. For the same molecule, the “Time (min) to onset of: Vomiting” value [4, 11] was greater than 120 min, the “Total number of individual incidences of: Retching” value (“Total number … Retching” below) [4, 11] was 0 and the “Total number of individual incidences of: Vomiting” value (“Total number … Vomiting” for short) [4, 11] was 0. The “Time (min) to onset of: Retching” value ([4]; 40 mg/kg as base p.o., Mean) was greater than 120 min, the “Time (min) to onset of: Vomiting” value ([4]; 40 mg/kg as base p.o., Mean) was greater than 120 min and the “Total number … Retching” value ([4]; 40 mg/kg as base p.o., Mean) was 0. For the same molecule, the “Total number … Vomiting” value ([4]; 40 mg/kg as base p.o., Mean) was 0, the “retching or vomiting (in words)” value ([4]; oral 40 mg galantamine (free base equivs)/kg) was “no retching or vomiting at all was observed” and the “stimulation of smooth muscle contractions (change in force production)” value [5] was “complete absence of any such effect”.

In the case of `COc1ccc2c3c1O[C@H]1C[C@@H](OC(=O)[C@@H](N)C(C)C)C=C[C@@]31CCN(C)C2` [Galantamine-(S)-valine ester, galantamine-(S)-valine ester tartrate], the “Total number … Retching” value ([4]; 20 mg/kg p.o. (galantamine free base content), 2 hr. observation, individual ferrets, listed as Galantamine valine ester tartrate) is reported as 22 and 0 (6×) and 2 (2×) and 3 and 14, the “Total number … Retching” value ([4]; 20 mg/kg p.o., 2 hr. observation, Mean) is reported as 3.9 and the “Time (min) to onset of: Retching” value [4, 12] is reported as 35 min and >120 min (6×) and 106 min and 11 min and 9 min and 6 min. For the same molecule, the “Time (min) to onset of: Vomiting” value [4, 12] was 44 min and >120 min (9×) and 9 min and the “Total number … Vomiting” value [4, 12] was 1 and 0 (9×) and 3.

In the case of `[Cl-].[Li+]` [LiCl], the “Cumulative mean ± SD kaolin consumption” value ([2]; positive control, 130 mg base/kg po, 24 h) is reported as 3.33 ± 1.98 g, the “Cumulative mean ± SD kaolin consumption” value ([2]; positive control, 130 mg base/kg po, 48 h) is reported as 3.71 ± 2.22 g and the “Cumulative mean ± SD kaolin consumption” value ([2]; positive control, 130 mg base/kg po, 72 h) is reported as 4.42 ± 2.82 g. The “Cumulative mean ± SD kaolin consumption” value ([2]; positive control, 130 mg base/kg po, 96 h) was 4.82 ± 3.11 g.

In the case of “galantamine (glutaryl-PABA) ester trifluoroacetate [Galantamine [glutaryl-PABA] ester]”, the “% Prodrug Remaining” value (FaSSIF (pH 6.5), 37 deg. C., 0 hours) is reported as 96%, the “% Prodrug Remaining” value (FaSSIF (pH 6.5), 37 deg. C., 2 hour) is reported as 86% and the “% Prodrug Remaining” value (FeSSIF (pH 6.5), 37 deg. C., 0 hours) is reported as 85%. For the same molecule, the “% Prodrug Remaining” value (FeSSIF (pH 6.5), 37 deg. C., 2 hours) was 90%.

In the case of galantamine-(S)-valine ester tartrate, the “animals dosed that retched” value [4, 13] is reported as 45% and the “animals dosed that vomited” value [4, 13] is reported as 18%.
